Patent US12083100B1, “Antiparasitic isoxazoline compounds, long-acting injectable formulations comprising them, methods and uses thereof” (BOEHRINGER INGELHEIM ANIMAL HEALTH USA INC., priority 2016, dated 2024)

Test system: Rhipicephalus microplus ticks
Assay: Efficacy of injectable formulation against Rhipicephalus (Boophilus) microplus ticks on cattle
Assay type: in vivo
Conditions: for Average % Efficacy (Tick Count): vs untreated control; for efficacy and duration of activity against Rhipicephalus microplus compared with other isoxazoline compounds / speed of onset of efficacy against Rhipicephalus microplus compared with other isoxazoline compounds: injectable composition, compared with afoxolaner, (If) or (S)-If
Procedure: The efficacy of long-acting injectable compositions of the invention comprising the compounds of formula (Ie) and (S)-Ie, against Rhipicephalus microplus ticks on cattle was determined against an untreated control group. The efficacy of compositions comprising the compounds (Ie) and (S)-e were also compared with injectable compositions comprising afoxolaner (formula Ia, 4-[5-[3-chloro-5-(trifluoromethyl)phenyl]-4,5-dihydro-5-(trifluoromethyl)-3-isoxazolyl]-N-[2-oxo-2-[(2,2,2-trifluoroethyl)amino]ethyl]-1-naphthalanecarboxamide), and comparative compounds of formulae (If) and (S)-If shown below.
Each compound was formulated in an injectable composition at a concentration of 10% (w/v) in a carrier comprising 8% (w/v) ethanol and Q.S. with polyethylene glycol 400. The racemic compounds afoxolaner and (If) were dosed at 1.0 mg/kg body weight and the (S)-enantiomers ((S)-Ie and (S)-If) were dosed at 0.5 mg/kg body weight. Six healthy head of cattle were used in each study group. Cattle in Group 1 were untreated (control). Cattle in Groups 2, 3, 4, 5 and 6 were treated on Day 0 subcutaneously with injectable compositions comprising the compounds of formula Ie, (S)-If, (S)-Ie, afoxolaner (Ia) and (If), respectively. Several weeks before treatment, cattle were infested three times a week with approximately 2500 Rhipicephalus microplus larvae to establish ongoing infestations. Each animal was challenged by infestation with approximately 5000 R. microplus larvae on Days 7 and 21 and every 14 days thereafter. Ticks dropping from each animal in the previous 24 hours were collected daily and counted from Day 1 until the end of the study.

[1] = Day 5, 1.0 mg/kg subcutaneous on Day 0 (racemic compounds)
[2] = Day 10, 1.0 mg/kg subcutaneous on Day 0 (racemic compounds)
[3] = Day 20, 1.0 mg/kg subcutaneous on Day 0 (racemic compounds)
[4] = Day 30, 1.0 mg/kg subcutaneous on Day 0 (racemic compounds)
[5] = Day 40, 1.0 mg/kg subcutaneous on Day 0 (racemic compounds)
[6] = Day 49, 1.0 mg/kg subcutaneous on Day 0 (racemic compounds)
[7] = Day 55, 1.0 mg/kg subcutaneous on Day 0 (racemic compounds)
[8] = Day 60, 1.0 mg/kg subcutaneous on Day 0 (racemic compounds)
[9] = Day 65, 1.0 mg/kg subcutaneous on Day 0 (racemic compounds)
[10] = Day 70, 1.0 mg/kg subcutaneous on Day 0 (racemic compounds)
[11] = Day 75, 1.0 mg/kg subcutaneous on Day 0 (racemic compounds)
[12] = listed as formula (Ic) wherein X^1 is chloro, X^2 is fluoro and X^3 is CF3
[13] = listed as formula (Id) in which Y is Y-2, Q is —C(O)NHCH2C(O)NHCH2CF3, X^1 is fluoro and X

| SMILES | Average % Efficacy (Tick Count) [1] [%] | Average % Efficacy (Tick Count) [2] [%] | Average % Efficacy (Tick Count) [3] [%] | Average % Efficacy (Tick Count) [4] [%] | Average % Efficacy (Tick Count) [5] [%] | Average % Efficacy (Tick Count) [6] [%] | Average % Efficacy (Tick Count) [7] [%] | Average % Efficacy (Tick Count) [8] [%] | Average % Efficacy (Tick Count) [9] [%] | Average % Efficacy (Tick Count) [10] [%] | Average % Efficacy (Tick Count) [11] [%] | further results |
| --- | --- | --- | --- | --- | --- | --- | --- | --- | --- | --- | --- | --- |
| O=C(CNC(=O)c1ccc(C2=NOC(c3cc(Cl)c(F)c(C(F)(F)F)c3)(C(F)(F)F)C2)c2ccccc12)NCC(F)(F)F (racemic) [Ie] | 69 | 100 | 100 | 100 | 100 | 100 | 100 | 100 | 100 | 100 | 100 | Average % Efficacy (Tick Count) (Day 80, 1.0 mg/kg subcutaneous on Day 0 (racemic compounds)): 100%; Average % Efficacy (Tick Count) (Day 85, 1.0 mg/kg subcutaneous on Day 0 (racemic compounds)): 100%; Average % Efficacy (Tick Count) (Day 88, 1.0 mg/kg subcutaneous on Day 0 (racemic compounds)): 100%; Average % Efficacy (Tick Count) (Day 95, 1.0 mg/kg subcutaneous on Day 0 (racemic compounds)): 100%; Average % Efficacy (Tick Count) (Day 100, 1.0 mg/kg subcutaneous on Day 0 (racemic compounds)): 100%; Average % Efficacy (Tick Count) (Day 105, 1.0 mg/kg subcutaneous on Day 0 (racemic compounds)): 93%; Average % Efficacy (Tick Count) (Day 110, 1.0 mg/kg subcutaneous on Day 0 (racemic compounds)): 82%; efficacy and duration of activity against Rhipicephalus microplus compared with other isoxazoline compounds: surprising and unexpected efficacy; speed of onset of efficacy against Rhipicephalus microplus compared with other isoxazoline compounds (listed as Je): faster-acting; efficacy and duration of activity against Rhipicephalus microplus compared with other isoxazoline compounds [12]: surprisingly long-lasting and excellent efficacy; speed of onset of efficacy against Rhipicephalus microplus compared with other isoxazoline compounds [12]: quick onset; efficacy and duration of activity against Rhipicephalus microplus compared with other isoxazoline compounds [13]: surprisingly improved duration of activity; speed of onset of efficacy against Rhipicephalus microplus compared with other isoxazoline compounds [13]: surprisingly improved fast-acting efficacy |
| O=C(CNC(=O)c1ccc(C2=NOC(c3cc(Cl)cc(C(F)(F)F)c3)(C(F)(F)F)C2)c2ccccc12)NCC(F)(F)F (racemic) [afoxolaner, 4-[5-[3-chloro-5-(trifluoromethyl)phenyl]-4,5-dihydro-5-(trifluoromethyl)-3-isoxazolyl]-N-[2-oxo-2-[(2,2,2-trifluoroethyl)amino]ethyl]-1-naphthalanecarboxamide, reference compound] | 38 | 48 | 77 | 99 | 100 | 94 | 73 | 71 | 48 | 3 | 0 | – |
| O=C(CNC(=O)c1ccc(C2=NO[C@@](c3cc(Cl)cc(Cl)c3)(C(F)(F)F)C2)c2ccccc12)NCC(F)(F)F [(S)-If, reference compound] | – | – | – | – | – | – | – | – | – | – | – | Average % Efficacy (Tick Count) (Day 5, 0.5 mg/kg subcutaneous on Day 0 ((S)-enantiomers)): 39%; Average % Efficacy (Tick Count) (Day 10, 0.5 mg/kg subcutaneous on Day 0 ((S)-enantiomers)): 27%; Average % Efficacy (Tick Count) (Day 20, 0.5 mg/kg subcutaneous on Day 0 ((S)-enantiomers)): 33%; Average % Efficacy (Tick Count) (Day 30, 0.5 mg/kg subcutaneous on Day 0 ((S)-enantiomers)): 86%; Average % Efficacy (Tick Count) (Day 40, 0.5 mg/kg subcutaneous on Day 0 ((S)-enantiomers)): 100%; Average % Efficacy (Tick Count) (Day 49, 0.5 mg/kg subcutaneous on Day 0 ((S)-enantiomers)): 36%; Average % Efficacy (Tick Count) (Day 55, 0.5 mg/kg subcutaneous on Day 0 ((S)-enantiomers)): 0% |
| O=C(CNC(=O)c1ccc(C2=NOC(c3cc(Cl)cc(Cl)c3)(C(F)(F)F)C2)c2ccccc12)NCC(F)(F)F (stereo not shown) [If, reference compound] | 70 | 62 | 57 | 84 | 100 | 70 | 14 | – | – | – | – | – |
